Read-outs that look alike come from different tables or passages of the source.
Assay: Thermal stability by thermogravimetric (TGA) and thermal differential analysis (TDA)
Type: physicochemical
Method: The thermogravimetric analysis is a method of thermal analysis in which the changes of the physical and chemical properties of the materials are measured as a function of the temperature. The TGA can supply information about the physical phenomena such as the vaporization or the combustion. Also, it is possible to obtain information about the chemical phenomena such as the dehydration or the decomposition. In the thermal differential analysis (TDA) the study material and an inert reference undergo identical thermic cycles. During the analysis the temperature difference between the sample and the reference is recorded. These temperature differences followed as a function of the rime relative to the inert reference inform us about the thermal phenomena undergone by the sample, whether exothermic or endothermic. […] The endothermic character is associated with a change of state of the compound (ex. vaporization) whereas the exothermic character is induced by reactions of decomposition or by intra- and intermolecular chemical reactions. The thermogravimetric analyzer […] of TA INSTRUMENT was used to conjointly determine the vaporization temperatures of the products, the enthalpy values and the rate of products not vaporized at 350° C. The analysis conditions are as follows: test size: 50 mg open crucible under flow of air: 100 ml/min rate of heating: 10° C./min temperature range: 25 to 350° C. (temperature conditions representative of a normal use as well as of misuse of an electronic cigarette). The apparatus is cleaned between each analysis by being heated to 600° C. under a flow of air in order to eliminate any trace of non-vaporized residue deposited on the crucible, the balance arms or the kiln walls.

CC(O)CCO (stereo not shown) [1,3-butane diol]
TDA vaporization temperature (° C.) (1) (endothermic peak, 50 mg, air 100 ml/min, 10° C./min, 25 to 350° C.): 171 °C | TDA transformation temperature (° C.) (2) (exothermic peak (reaction and/or decomposition), 50 mg, air 100 ml/min, 10° C./min): without any thermal decomposition

CN1CCCC1c1cccnc1 (stereo not shown) [Nicotine]
TDA vaporization temperature (° C.) (1): 190 °C | TGA non-evaporated residue at 250° C. (%): 1.08%
